For the test, the target named is TARP γ8 dependent AMPA receptor (GRIA1o-CACNG8 fusion construct) (Homo sapiens (Human), UniProt P42261+Q8WXS5). Nature of the test: Calcium flux assay (FLIPR), inhibition of glutamate response of GluA1o-γ8 channel. Type of test: cell-based. Particulars: HEK293 cells stably expressing GRIA1o-CACNG8 fusion; calcium flux after 15 μM glutamate; negative log of the IC50 in molar. An outline of the steps:
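HEK293 clonal line stably expressing a GRIA1o-CACNG8 fusion (1:1 GluA1o:γ8), loaded with Calcium-5/6 dye plus compound in HEPES buffer pH 7.4. FLIPR calcium flux read after 15 μM glutamate; normalized to no-compound and 10 μM CP465022 controls. Four-parameter logistic fit gives IC50, reported as pIC50.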
In general terms: A change in cytosolic calcium serves as a functional read-out for many receptors and channels.
Chain of TARP γ8 dependent AMPA receptor (GRIA1o-CACNG8 fusion construct) (P42261 other isoform, or with tags, fused parts or gaps): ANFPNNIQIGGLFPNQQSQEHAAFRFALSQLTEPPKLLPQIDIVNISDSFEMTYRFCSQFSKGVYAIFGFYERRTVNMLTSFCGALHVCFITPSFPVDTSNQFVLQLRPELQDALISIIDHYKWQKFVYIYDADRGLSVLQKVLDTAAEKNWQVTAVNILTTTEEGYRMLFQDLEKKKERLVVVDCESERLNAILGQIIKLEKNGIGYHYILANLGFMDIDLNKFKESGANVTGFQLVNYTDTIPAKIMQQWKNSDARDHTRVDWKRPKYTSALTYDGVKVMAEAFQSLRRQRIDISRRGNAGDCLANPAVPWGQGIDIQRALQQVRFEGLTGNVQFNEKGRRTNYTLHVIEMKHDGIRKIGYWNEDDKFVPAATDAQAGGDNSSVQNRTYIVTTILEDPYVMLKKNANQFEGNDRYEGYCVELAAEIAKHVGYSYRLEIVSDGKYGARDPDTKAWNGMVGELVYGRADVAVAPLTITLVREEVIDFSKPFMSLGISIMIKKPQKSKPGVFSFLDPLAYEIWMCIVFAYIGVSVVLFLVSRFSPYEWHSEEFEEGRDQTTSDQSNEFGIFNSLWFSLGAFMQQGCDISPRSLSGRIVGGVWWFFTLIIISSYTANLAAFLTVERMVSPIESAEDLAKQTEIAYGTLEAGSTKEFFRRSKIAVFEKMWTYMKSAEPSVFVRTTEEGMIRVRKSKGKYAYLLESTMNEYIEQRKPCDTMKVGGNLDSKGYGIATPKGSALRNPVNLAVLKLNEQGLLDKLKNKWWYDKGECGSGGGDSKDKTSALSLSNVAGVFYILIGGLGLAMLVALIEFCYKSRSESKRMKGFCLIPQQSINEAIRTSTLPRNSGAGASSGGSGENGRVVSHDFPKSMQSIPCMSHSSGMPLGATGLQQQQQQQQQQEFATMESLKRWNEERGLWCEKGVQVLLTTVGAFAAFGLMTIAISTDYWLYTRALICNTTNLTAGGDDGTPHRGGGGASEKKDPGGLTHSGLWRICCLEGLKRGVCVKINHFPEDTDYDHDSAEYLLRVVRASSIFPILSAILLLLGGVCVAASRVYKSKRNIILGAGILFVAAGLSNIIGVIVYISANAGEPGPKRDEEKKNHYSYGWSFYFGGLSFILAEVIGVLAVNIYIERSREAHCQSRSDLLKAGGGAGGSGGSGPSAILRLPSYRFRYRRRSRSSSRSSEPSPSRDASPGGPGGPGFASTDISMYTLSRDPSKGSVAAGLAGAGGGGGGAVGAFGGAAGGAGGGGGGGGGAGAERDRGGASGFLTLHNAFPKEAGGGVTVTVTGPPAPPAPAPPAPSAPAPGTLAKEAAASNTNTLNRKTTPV
`Cc1cc(-c2c(C(F)(F)F)cc(C)c3nc(C(F)F)nn23)cc2cn[nH]c12` [Example 79, 2-(Difluoromethyl)-8-methyl-5-(7-methyl-1H-indazol-5-yl)-6-(trifluoromethyl)-[1,2,4]triazolo[1,5-a]pyridine]: the IC50 (usually the concentration that gives 50% inhibition) was 0.398 nM.
Under `Cc1cc(-c2c(C(F)(F)F)ccc3cc(C4CC4)nn23)cc2cn[nH]c12` [Example 69, 5-(2-Cyclopropyl-6-(trifluoromethyl)pyrazolo[1,5-a]pyridin-7-yl)-7-methyl-1H-indazole] stands 0.0501 nM; under `Cc1cc(C(F)(F)F)c(-c2cc(Cl)c3[nH]ncc3c2)n2nc(C(F)F)nc12` [Example 78, 5-(7-Chloro-1H-indazol-5-yl)-2-(difluoromethyl)-8-methyl-6-(trifluoromethyl)-[1,2,4]triazolo[1,5-a]pyridine], 0.126 nM.
For `Cc1cc(-c2c(C(F)(F)F)cc(C)c3nc(C4CC4)nn23)cc2cn[nH]c12` [Example 76, 2-Cyclopropyl-8-methyl-5-(7-methyl-1H-indazol-5-yl)-6-(trifluoromethyl)-[1,2,4]triazolo[1,5-a]pyridine], the IC50 is 0.158 nM.
With `O=C1Cc2cc(-c3c(C(F)(F)F)ccc4nc(C(F)(F)F)nn34)cc(Cl)c2N1` [Example 3, 5-(2,6-Bis(trifluoromethyl)-[1,2,4]triazolo[1,5-a]pyridin-5-yl)-7-chloroindolin-2-one] the figure was 0.251 nM; with `CCCc1nc2c(C)cc(C(F)(F)F)c(-c3cc(C)c4c(c3)CC(=O)N4)n2n1` [Example 85, 7-Methyl-5-(8-methyl-2-propyl-6-(trifluoromethyl)-[1,2,4]triazolo[1,5-a]pyridin-5-yl)indolin-2-one], 0.316 nM.
With `COc1ccc2nc(C(F)(F)F)nn2c1-c1cc(C)c2[nH]ncc2c1` [Example 51, 6-Methoxy-5-(7-methyl-1H-indazol-5-yl)-2-(trifluoromethyl)-[1,2,4]triazolo[1,5-a]pyridine] the figure was 5.01 nM.
With `Cc1cc(-c2c(C(F)F)cc(C)c3nc(C(F)(F)F)nn23)cc2cn[nH]c12` [Example 111, 6-(Difluoromethyl)-8-methyl-5-(7-methyl-1H-indazol-5-yl)-2-(trifluoromethyl)-[1,2,4]triazolo[1,5-a]pyridine] the figure was 0.794 nM; with `Cc1cc(-c2c(C(F)(F)F)cc(C)c3nc(C4CC4)nn23)cc2c1NC(=O)C2` [Example 99, 5-(2-Cyclopropyl-8-methyl-6-(trifluoromethyl)-[1,2,4]triazolo[1,5-a]pyridin-5-yl)-7-methylindolin-2-one], 0.251 nM.

For the origin of these results see US10087185B2 (Janssen Pharmaceutica NV, priority 2016, dated 2018).
